From US9284283B2, “Macrocyclic compounds for modulating IL-17” (ENSEMBLE THERAPEUTICS CORPORATION, priority 2012, dated 2016)
Read-outs that look alike come from different tables or passages of the source.

Tests used:
[1] = target: T1, biotinylated human IL-17 (binding to IL17R/Fc) (Homo sapiens, UniProt Q16552); assay: IL-17 competition ELISA II (captured IL17R/Fc, biotinylated IL-17)
T1 construct: purchased R&D Systems 317-ILB (IL-17, biotinylated); 177-IR (IL17R/Fc)
T1 sequence (Q16552 20-155 limits assumed): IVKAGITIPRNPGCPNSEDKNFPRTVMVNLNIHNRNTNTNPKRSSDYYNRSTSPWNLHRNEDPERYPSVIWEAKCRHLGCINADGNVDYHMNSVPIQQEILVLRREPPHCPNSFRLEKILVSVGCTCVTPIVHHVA
In short: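 Competition read-out: absorbance at 450 nm after streptavidin-HRP/TMB detection, fitted to a 4-parameter logistic model bounded by no-competitor and blank wells to give IC50. Compound was serially diluted 5-fold from 1 μM alongside 20 nM (stock) biotinylated IL-17 on IL17R/Fc (10 nM) captured via goat anti-human IgG, 30 min at room temperature.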

[2] = system: IL-17A induced secretion of IL-6 in primary human RASF cells; assay: Inhibition of IL17A induced secretion of IL6 in human rheumatoid arthritis synovial fibroblast (RASF) cells; assay type: cell-based
Procedure: This assay was used to determine the extent of inhibition of IL-17A induced secretion of IL-6 in primary human rheumatoid synovial fibroblast (RASF) cells by compounds of the invention. IL-17A is known to stimulate IL-6 production in RASF cells.
Low passage (passage 2-8) Primary human RASF cells (Asterand) were maintained in maintenance medium. Cells were detached from flasks by tryptic digestion and the cell density of the suspension determined. To each well of a 96 well culture plate was added 100 μL of seeding medium containing 50,000 cells/mL and the plate incubated overnight in a humidified 37° C., 5% CO2 incubator. The medium was replaced with fresh assay medium and cells were incubated for additional 5 hours in a humidified 37° C., 5% CO2 incubator prior to stimulation with recombinant human IL-17A (“rhIL-17A”). Prior to addition to cells, rhIL-17A (30 ng/mL) in assay medium was incubated with either DMSO alone, compounds, or anti-IL17 receptor antibody (3 μg/mL) for 1 hour at 37° C. The final concentration of DMSO in all samples was 0.25%. The final concentration of compounds varied from 0.03 μM to 25 μM.
Immediately before stimulation, cells were washed once with fresh assay medium. Then, 100 μL of the test samples was added in triplicate wells and the plates incubated for 20 hours in a humidified 37° C., 5% CO2 incubator. The assay medium from each well was collected and the IL-6 concentration in cell culture supernatants was determined by ELISA either immediately or after storage at −20° C.
A water-soluble tetrazolium salt (WST1) viability assay was immediately performed on the cells after the conditioned medium was collected using a WST1 reagent purchased from Roche. The concentration of IL-6 obtained from ELISA was normalized by the WST1 data.

Row | Structure (SMILES) | IC50 [1] [µM] | IC50 ([2]; Homo sapiens, Fibroblast) [µM] | IC50 [2] [µM]
1 | Cc1ccccc1CC(=O)N[C@@H](Cc1ccccc1Cl)C(=O)Nc1ccc(C[C@H]2NC(=O)CC3(CCCC3)CC(=O)NCCOCCOCCNC2=O)cc1 [Compound 495] | < 0.1 | 1 to 10 | –
2 | O=C1CC2(CCCC2)CC(=O)N[C@H](Cc2ccc(NC(=O)[C@H](Cc3ccccc3Cl)NC(=O)Cc3ccc(F)cc3)cc2)C(=O)NCC#CCCCCN1 [Compound 497] | < 0.1 | 1 to 10 | –
3 | O=C1CC2(CCCC2)CC(=O)N[C@H](Cc2ccc(NC(=O)[C@H](Cc3ccccc3Cl)NC(=O)Cc3ccc(F)cc3)cc2)C(=O)N[C@H](CC2CCCCC2)C(=O)NCCCCCN1 [Compound 499] | < 0.1 | 0.1 to 1 | –
4 | O=C1CC2(CCCC2)CC(=O)N[C@H](Cc2ccc(NC(=O)[C@H](Cc3ccc(F)cc3Cl)NC(=O)Cc3ccc(F)cc3)cc2)C(=O)NCCOCCOCCN1 [Compound 502] | < 0.1 | 1 to 10 | –
5 | C[C@H]1NC(=O)[C@@H](Cc2ccc(NC(=O)[C@H](Cc3ccccc3C(F)(F)F)NC(=O)C3(c4ccc(F)cc4)CC3)cc2)NC(=O)CC2(CCCC2)CC(=O)N(C)CCCCCNC1=O [Compound 507] | < 0.1 | 1 to 10 | –
6 | C[C@H]1NC(=O)[C@@H](Cc2ccc(NC(=O)[C@H](Cc3ccccc3Cl)NC(=O)C3(c4ccc(F)cc4)CC3)cc2)NC(=O)CC2(CCCC2)CC(=O)N[C@H](C(=O)O)CCCCNC1=O [Compound 513] | < 0.1 | 0.1 to 1 | –
7 | Cc1ccccc1C[C@H](NC(=O)Cc1ccc(F)cc1)C(=O)Nc1ccc(C[C@H]2NC(=O)CC3(CCCC3)CC(=O)NCCCCCNC(=O)[C@@H](CCC(N)=O)NC2=O)cc1 [Compound 515] | < 0.1 | < 0.1 | –
8 | O=C1CC2(CCCC2)CC(=O)N[C@H](Cc2ccc(NC(=O)[C@H](Cc3ccccc3Cl)NC(=O)c3ccccc3)cc2)C(=O)NCCOCCOCCN1 [Compound 522] | < 0.1 | 1 to 10 | –
9 | C[C@H]1NC(=O)[C@@H](Cc2ccc(NC(=O)[C@H](Cc3ccccc3Cl)NC(=O)Cc3ccc(F)cc3)cc2)NC(=O)CC2(CCCC2)CC(=O)N[C@H](C(=O)O)CCCCNC1=O [Compound 529] | < 0.1 | < 0.1 | –
10 | C[C@H]1NC(=O)[C@@H](Cc2ccc(NC(=O)[C@H](Cc3ccccc3Cl)NC(=O)Cc3ccc(F)cc3)cc2)NC(=O)CC2(CCC2)CC(=O)NCCCCCNC1=O [Compound 535] | < 0.1 | 1 to 10 | –
11 | C[C@H]1NC(=O)[C@@H](Cc2ccc(NC(=O)[C@H](Cc3ccccc3Cl)NC(=O)C(F)(F)c3ccccc3)cc2)NC(=O)CC2(CCC2)CC(=O)NCCCCCNC1=O [Compound 536] | < 0.1 | 0.1 to 1 | –
12 | C[C@H]1NC(=O)[C@@H](Cc2ccc(NC(=O)[C@H](Cc3ccccc3Cl)NC(=O)Cc3ccc(F)cc3)cc2)NC(=O)CC2(CCCC2)CC(=O)N(C)CCN(C)CCN(C)C1=O [Compound 539] | < 0.1 | 1 to 10 | –
13 | C[C@H]1NC(=O)[C@@H](Cc2ccc(NC(=O)[C@H](Cc3ccccc3Cl)NC(=O)C(F)(F)c3ccccc3)cc2)NC(=O)CC2(CCCC2)CC(=O)N(C)CCN(C)CCN(C)C1=O [Compound 540] | < 0.1 | 1 to 10 | –
14 | C[C@H]1NC(=O)[C@@H](Cc2ccc(NC(=O)[C@H](Cc3ccccc3Cl)NC(=O)C(=O)c3ccccc3)cc2)NC(=O)CC2(CCCC2)CC(=O)NCCCCCNC1=O [Compound 549] | < 0.1 | < 0.1 | –
15 | C[C@H]1NC(=O)[C@@H](Cc2ccc(NC(=O)[C@H](Cc3ccccc3Cl)NC(=O)[C@@H](O)c3ccccc3)cc2)NC(=O)CC2(CCCC2)CC(=O)NCCCCCNC1=O [Compound 550] | < 0.1 | 1 to 10 | –
16 | C[C@H]1NC(=O)[C@@H](Cc2ccc(NC(=O)[C@H](Cc3ccccc3Cl)NC(=O)[C@H](O)c3ccccc3)cc2)NC(=O)CC2(CCCC2)CC(=O)NCCCCCNC1=O [Compound 551] | < 0.1 | 1 to 10 | –

Row | Structure (SMILES) | IC50 [1] [µM] | IC50 ([2]; Homo sapiens, Fibroblast) [µM] | IC50 [2] [µM]
17 | C[C@H]1NC(=O)[C@@H](Cc2ccc(NC(=O)[C@H](Cc3ccccc3Cl)NC(=O)Cc3ccc(N(C)C)cc3)cc2)NC(=O)CC2(CCCC2)CC(=O)NCCCCCNC1=O [Compound 552] | < 0.1 | < 0.1 | –
18 | CN(C)c1ccc(CC(=O)N[C@@H](Cc2ccccc2Cl)C(=O)Nc2ccc(C[C@H]3NC(=O)CC4(CCCC4)CC(=O)NCCOCCOCCNC3=O)cc2)cc1 [Compound 553] | < 0.1 | 0.1 to 1 | –
19 | C[C@H]1NC(=O)[C@@H](Cc2ccc(NC(=O)[C@H](Cc3ccccc3Cl)Nc3nc4ccccc4o3)cc2)NC(=O)CC2(CCCC2)CC(=O)NCCCCCNC1=O [Compound 555] | < 0.1 | < 0.1 | –
20 | C[C@H]1NC(=O)[C@@H](Cc2ccc(NC(=O)[C@H](Cc3ccccc3Cl)NC(=O)C(F)(F)c3ccc(F)cc3)cc2)NC(=O)CC2(CCCC2)CC(=O)NCCCCCNC1=O [Compound 560] | < 0.1 | < 0.1 | –
21 | CC1NC(=O)C(Cc2ccc(NC(=O)C(Cc3ccccc3Cl)NC(=O)Cc3ccc(F)cc3)cc2)NC(=O)C2(CCCC2)CCC(=O)NCCCCCNC1=O (stereo not shown) [Compound 561] | < 0.1 | – | 1 to 10
22 | C[C@H]1NC(=O)[C@@H](Cc2ccc(NC(=O)[C@H](Cc3ccccc3Cl)NC(=O)Cc3ccc(N(C)C)cc3)cc2)NC(=O)CC2(CCCC2)CC(=O)N(C)CCN(C)CCN(C)C1=O [Compound 562] | < 0.1 | 1 to 10 | –
23 | CC1NC(=O)C(Cc2ccc(NC(=O)C(Cc3ccccc3Cl)NC(=O)C(F)(F)c3ccccc3)cc2)NC(=O)CC2(CCCC2)CC(=O)N(C)CCCCCN(C)C1=O (stereo not shown) [Compound 566] | < 0.1 | – | 0.1 to 1
24 | C[C@H]1NC(=O)[C@@H](Cc2ccc(NC(=O)[C@H](Cc3ccccc3Cl)NC(=O)C(F)(F)c3ccccc3)cc2)NC(=O)CC2(CCCC2)CC(=O)N(C)CCOCCN(C)C1=O [Compound 567] | < 0.1 | 0.1 to 1 | –
25 | O=C1CC2(CCCC2)CC(=O)N[C@H](Cc2ccc(NC(=O)[C@H](Cc3ccccc3Cl)NC(=O)Oc3ccccc3)cc2)C(=O)NCCOCCOCCN1 [Compound 571] | < 0.1 | 1 to 10 | –
26 | CN1CCOCCOCCNC(=O)[C@@H](Cc2ccc(NC(=O)[C@H](Cc3ccccc3Cl)NC(=O)Cc3ccc(N(C)C)cc3)cc2)NC(=O)CC2(CCCC2)CC1=O [Compound 582] | < 0.1 | 1 to 10 | –
27 | C[C@H]1NC(=O)[C@@H](Cc2ccc(NC(=O)[C@H](Cc3ccccc3Cl)NC(=O)Cc3ccc(N(C)C)cc3)cc2)NC(=O)CC2(CCCC2)CC(=O)N(C)CCOCCN(C)C1=O [Compound 584] | < 0.1 | 1 to 10 | –
28 | C[C@H]1NC(=O)[C@@H](Cc2ccc(NC(=O)[C@H](Cc3ccccc3Cl)NC(=O)Cc3ccc(F)cc3)cc2)NC(=O)CC2(CCCC2)NC(=O)CCNC(=O)CCNC1=O [Compound 593] | < 0.1 | 0.1 to 1 | –
29 | C[C@H]1NC(=O)[C@@H](Cc2ccc(NC(=O)[C@@H](NC(=O)C(F)(F)c3ccccc3)C3CCCCC3)cc2)NC(=O)CC2(CCCC2)CC(=O)N(C)CCCCCN(C)C1=O [Compound 600] | < 0.1 | 1 to 10 | –
30 | C[C@H]1NC(=O)[C@@H](Cc2ccc(NC(=O)[C@@H](NC(=O)Cc3ccc(N(C)C)cc3)C3CCCCC3)cc2)NC(=O)CC2(CCCC2)CC(=O)N(C)CCCCCN(C)C1=O [Compound 601] | < 0.1 | 1 to 10 | –
31 | CN1CCCCCN(C)C(=O)[C@@H](CCC(N)=O)NC(=O)[C@@H](Cc2ccc(NC(=O)[C@@H](NC(=O)Cc3ccc(N(C)C)cc3)C3CCCCC3)cc2)NC(=O)CC2(CCCC2)CC1=O [Compound 626] | < 0.1 | 0.1 to 1 | –
32 | CN1CCCCCN(C)C(=O)[C@@H](Cc2ccncc2)NC(=O)[C@@H](Cc2ccc(NC(=O)[C@H](Cc3ccccc3Cl)NC(=O)C(F)(F)c3ccccc3)cc2)NC(=O)CC2(CCCC2)CC1=O [Compound 627] | < 0.1 | 0.1 to 1 | –
